Measurements: PubChem BioAssay (NCI)
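1) Cells in 96-well plates. 2) Compound, 48 h, 5 concentrations. 3) Linear interpolation between surrounding doses. 4) Unreached endpoint = highest concentration. The concentration for full growth arrest is given as TGI.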

Key:
Experiment in all cases: NCI anticancer screen, dose series, 48 h
[1] = system: UACC-257 melanoma
[2] = system: SW-620 colon
[3] = system: SNB-19 CNS
[4] = system: A498 renal
[5] = system: U251 CNS
[6] = system: MOLT-4 leukemia
[7] = system: OVCAR-3 ovarian
[8] = system: ACHN renal
[9] = system: SK-MEL-5 melanoma
[10] = system: UACC-62 melanoma
[11] = system: SF-268 CNS
[12] = system: MDA-N
[13] = system: KM12 colon
[14] = system: MALME-3M melanoma
[15] = system: RXF 393 renal
[16] = system: LOX IMVI melanoma
[17] = system: CCRF-CEM leukemia
[18] = system: A549 NSCLC
[19] = system: HOP-62 NSCLC
[20] = system: NCI-H23 lung
[21] = system: SN12C renal
[22] = system: SK-OV-3 ovarian
[23] = system: SK-MEL-28 melanoma
[24] = system: SK-MEL-2 melanoma
[25] = system: NCI-H522 lung
[26] = system: SNB-75 CNS
[27] = system: OVCAR-4 ovarian
[28] = system: BT-549 breast
[29] = system: SF-539 CNS
[30] = system: DU-145 prostate
[31] = system: TK-10 renal
[32] = system: CAKI-1 renal
[33] = system: HT29 colon
[34] = system: T-47D breast
[35] = system: HCC-2998 colon
[36] = system: NCI-H226 lung
[37] = system: NCI/ADR-RES ovarian
[38] = system: M14 melanoma
[39] = system: SR leukemia
[40] = system: MCF7 breast
[41] = system: OVCAR-5 ovarian
[42] = system: HS 578T breast
[43] = system: MDA-MB-231 breast
[44] = system: PC-3 prostate
[45] = system: RPMI-8226 leukemia
[46] = system: HCT-116 colon
[47] = system: EKVX NSCLC
[48] = system: HCT-15 colon
[49] = system: HOP-92 NSCLC
[50] = system: MDA-MB-435
[51] = system: COLO 205 colon
[52] = system: UO-31 renal
[53] = system: SF-295 CNS
[54] = system: 786-0 renal
[55] = system: HL-60(TB) leukemia
[56] = system: IGROV1 ovarian
[57] = system: OVCAR-8 ovarian
[58] = system: NCI-H460 lung
[59] = system: K-562 leukemia

Measured: TGI

Cc1cc(O)c(C=O)c2c1C(=O)Oc1c(CO)c(O)c3c(c1O2)C(O)OC3=O (stereo not drawn)
66.2 µM: [39]
79.2 µM: [55]
54.5 µM: [45]
94.1 µM: [6]
not listed: [58] | [59]
> 100 µM: all other assays above

N#CC1CNC(N)NC1N (stereo not drawn)
34.6 µM: [17]
not listed: [6] | [35] | [52]
> 100 µM: all other assays above
